Experimental data from PubChem BioAssay (NCI).
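Test compounds were applied to cells in 96-well plates for 48 hours at 5 doses. Definition used: TGI = concentration required for complete inhibition of growth.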

Columns and labels:
Assay in all cases: NCI-60 cell line screen, 48 h
[1] = system: MCF7 breast
[2] = system: KM12 colon
[3] = system: MDA-MB-435
[4] = system: HCC-2998 colon
[5] = system: IGROV1 ovarian
[6] = system: COLO 205 colon
[7] = system: OVCAR-4 ovarian
[8] = system: HCT-116 colon
[9] = system: RXF 393 renal
[10] = system: HL-60(TB) leukemia
[11] = system: NCI-H460 lung
[12] = system: SR leukemia
[13] = system: NCI-H23 lung
[14] = system: DU-145 prostate
[15] = system: SNB-75 CNS
[16] = system: SNB-19 CNS
[17] = system: EKVX NSCLC
[18] = system: SW-620 colon
[19] = system: UO-31 renal
[20] = system: 786-0 renal
[21] = system: NCI-H226 lung
[22] = system: T-47D breast
[23] = system: HOP-92 NSCLC
[24] = system: NCI-H522 lung
[25] = system: ACHN renal
[26] = system: HS 578T breast
[27] = system: PC-3 prostate
[28] = system: OVCAR-3 ovarian
[29] = system: HT29 colon
[30] = system: TK-10 renal
[31] = system: SF-539 CNS
[32] = system: NCI/ADR-RES ovarian
[33] = system: LOX IMVI melanoma
[34] = system: SF-295 CNS
[35] = system: RPMI-8226 leukemia
[36] = system: SF-268 CNS
[37] = system: MALME-3M melanoma
[38] = system: MDA-MB-231 breast
[39] = system: UACC-62 melanoma
[40] = system: M14 melanoma
[41] = system: SK-MEL-2 melanoma
[42] = system: OVCAR-8 ovarian
[43] = system: MDA-N
[44] = system: BT-549 breast
[45] = system: HCT-15 colon
[46] = system: CAKI-1 renal
[47] = system: OVCAR-5 ovarian
[48] = system: U251 CNS
[49] = system: SN12C renal
[50] = system: MOLT-4 leukemia
[51] = system: UACC-257 melanoma
[52] = system: SK-MEL-28 melanoma
[53] = system: K-562 leukemia
[54] = system: A498 renal
[55] = system: SK-OV-3 ovarian
[56] = system: SK-MEL-5 melanoma
[57] = system: HOP-62 NSCLC
[58] = system: CCRF-CEM leukemia
[59] = system: A549 NSCLC
[60] = system: HOP-18 NSCLC
[61] = system: DMS 273 small cell lung
[62] = system: LXFL 529 NSCLC
[63] = system: DLD-1 colon
[64] = system: M19-MEL melanoma
[65] = system: DMS 114 small cell lung

For `S=C(N/N=C(/c1ccccc1)c1ccccn1)Nc1ccccc1Cl`, the TGI [1] was 6.89 µM, the TGI [2] was 16.2 µM and the TGI [3] was 8.77 µM. The TGI [4] was 8.11 µM, the TGI [5] was 7.84 µM and the TGI [6] was 2.31 µM. It also gave a TGI [7] of 18.2 µM, a TGI [8] of 3.44 µM and a TGI [9] of 4.24 µM. The TGI [10] was 0.228 µM, the TGI [11] was 6.24 µM and the TGI [12] was 3.04 µM. For the same compound, the TGI [13] was 16.7 µM, the TGI [14] was 17.8 µM and the TGI [15] was 19.4 µM. For the same compound, the TGI [16] was 15.8 µM, the TGI [17] was 9.92 µM and the TGI [18] was 14.8 µM. For the same compound, the TGI [19] was 5.96 µM, the TGI [20] was 13.1 µM and the TGI [21] was 2.67 µM. For the same compound, the TGI [22] was 0.857 µM, the TGI [23] was 11 µM and the TGI [24] was 1.89 µM. It also gave a TGI [25] of 9.46 µM, a TGI [26] of 24 µM and a TGI [27] of 13.3 µM. It also gave a TGI [28] of 11.2 µM, a TGI [29] of 13.4 µM and a TGI [30] of 12.6 µM. It also gave a TGI [31] of 6.59 µM, a TGI [32] of 5.18 µM and a TGI [33] of 23.3 µM. The TGI [34] was 7.29 µM, the TGI [35] was > 7.31 µM and the TGI [36] was 13.3 µM. For the same compound, the TGI [37] was 12.2 µM, the TGI [38] was 2.19 µM and the TGI [39] was 14.6 µM. It also gave a TGI [40] of 2.89 µM, a TGI [41] of 1.8 µM and a TGI [42] of 4.98 µM. It also gave a TGI [43] of 13.6 µM, a TGI [44] of 17.3 µM and a TGI [45] of 7.36 µM. The TGI [46] was 11.5 µM, the TGI [47] was 6.94 µM and the TGI [48] was 10.9 µM. The TGI [49] was 14.9 µM, the TGI [50] was 1.02 µM and the TGI [51] was 12.6 µM. The TGI [52] was 19.1 µM, the TGI [53] was > 5.82 µM and the TGI [54] was 7.19 µM. For the same compound, the TGI [55] was 13 µM, the TGI [56] was 2.63 µM and the TGI [57] was 16.6 µM. The TGI [58] was > 38.1 µM and the TGI [59] was 13 µM.

`CN(C)CCNc1ccc2c(=O)n(CCN(C)C)c(=O)n3c4ccc([N+](=O)[O-])cc4c(=O)c1c23` gave a TGI [1] of 1.04 µM, a TGI [2] of 4.95 µM and a TGI [3] of 1.83 µM. For the same compound, the TGI [4] was 2.27 µM, the TGI [5] was 1.29 µM and the TGI [6] was 2.12 µM. It also gave a TGI [7] of 2.8 µM, a TGI [8] of 1.24 µM and a TGI [9] of 0.996 µM. The TGI [10] was 0.417 µM, the TGI [11] was 1.53 µM and the TGI [12] was 0.581 µM. For the same compound, the TGI [13] was 0.777 µM, the TGI [14] was 6.54 µM and the TGI [15] was 1.26 µM. The TGI [16] was 4.51 µM, the TGI [17] was 2.83 µM and the TGI [18] was 1.78 µM. The TGI [19] was 4.06 µM, the TGI [20] was 2.74 µM and the TGI [21] was 4.01 µM. It also gave a TGI [22] of 6.89 µM, a TGI [23] of 3.33 µM and a TGI [24] of 0.263 µM. The TGI [25] was 3.83 µM, the TGI [26] was 3.09 µM and the TGI [27] was 2.43 µM. For the same compound, the TGI [28] was 2.27 µM, the TGI [29] was 0.658 µM and the TGI [30] was 7.1 µM. For the same compound, the TGI [31] was 1.68 µM, the TGI [32] was 2.1 µM and the TGI [33] was 1.1 µM. It also gave a TGI [34] of 2.31 µM, a TGI [35] of 0.605 µM and a TGI [36] of 3.33 µM. It also gave a TGI [37] of 1.37 µM, a TGI [38] of 2.21 µM and a TGI [39] of 3.17 µM. It also gave a TGI [40] of 2.38 µM, a TGI [41] of 1.31 µM and a TGI [42] of 3.99 µM. For the same compound, the TGI [43] was 1.38 µM, the TGI [44] was 2.66 µM and the TGI [45] was 1.49 µM. For the same compound, the TGI [46] was 10.2 µM, the TGI [47] was 4.54 µM and the TGI [48] was 2.88 µM. It also gave a TGI [49] of 1.56 µM, a TGI [50] of 0.0685 µM and a TGI [51] of 4.42 µM. The TGI [52] was 2.66 µM, the TGI [53] was 1.94 µM and the TGI [54] was 5.55 µM. For the same compound, the TGI [55] was 6.72 µM, the TGI [56] was 2.23 µM and the TGI [57] was 3.85 µM. For the same compound, the TGI [58] was 0.381 µM and the TGI [59] was 2.26 µM.

For `COc1cccc(NC(=S)Nn2c(C)nc3ccccc3c2=O)c1`, the TGI [60] was > 100 µM, the TGI [2] was > 100 µM and the TGI [5] was > 100 µM. For the same compound, the TGI [6] was > 100 µM, the TGI [7] was > 100 µM and the TGI [8] was > 100 µM. For the same compound, the TGI [9] was > 100 µM, the TGI [10] was > 100 µM and the TGI [11] was > 100 µM. The TGI [12] was > 100 µM, the TGI [61] was > 100 µM and the TGI [13] was > 100 µM. The TGI [15] was > 100 µM, the TGI [18] was > 100 µM and the TGI [19] was > 100 µM. For the same compound, the TGI [20] was > 100 µM, the TGI [62] was > 100 µM and the TGI [21] was > 100 µM. The TGI [23] was > 100 µM, the TGI [24] was > 100 µM and the TGI [63] was > 100 µM. For the same compound, the TGI [25] was > 100 µM, the TGI [64] was > 100 µM and the TGI [29] was > 100 µM. The TGI [30] was > 100 µM, the TGI [31] was > 100 µM and the TGI [33] was > 100 µM. For the same compound, the TGI [34] was > 100 µM, the TGI [35] was > 100 µM and the TGI [65] was > 100 µM. For the same compound, the TGI [36] was > 100 µM, the TGI [37] was > 100 µM and the TGI [39] was > 100 µM. For the same compound, the TGI [40] was > 100 µM, the TGI [41] was > 100 µM and the TGI [42] was > 100 µM. For the same compound, the TGI [45] was > 100 µM, the TGI [46] was > 100 µM and the TGI [47] was > 100 µM. For the same compound, the TGI [48] was > 100 µM, the TGI [49] was > 100 µM and the TGI [50] was > 100 µM. For the same compound, the TGI [51] was > 100 µM, the TGI [52] was > 100 µM and the TGI [53] was > 100 µM. The TGI [54] was > 100 µM, the TGI [55] was > 100 µM and the TGI [56] was > 100 µM. For the same compound, the TGI [57] was > 100 µM, the TGI [58] was > 100 µM and the TGI [59] was > 100 µM.
